Source: ChEMBL document CHEMBL1201862, “PubChem BioAssay data set” (2004)
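Five concentrations, 48 hours, 96-well plates. GI50 is the concentration that inhibits growth by half.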 Calls of active or inactive are those of the source. No stated cut-off is given here; in the data, active = GI50 up to about 1.1 µM and inactive = higher.

Columns and labels:
Assay in all cases: NCI anticancer screen, dose series, 48 h
786-0 = tested on: 786-0
A498 = tested on: A498
A549 = tested on: A549
ACHN = tested on: ACHN
BT-549 = tested on: BT-549
CAKI-1 = tested on: CAKI-1
CCRF-CEM = tested on: CCRF-CEM
COLO 205 = tested on: COLO 205
DU-145 = tested on: DU-145
EKVX = tested on: EKVX
HCC 2998 = tested on: HCC 2998
HCT-116 = tested on: HCT-116
HCT-15 = tested on: HCT-15
HL-60 = tested on: HL-60
HOP-62 = tested on: HOP-62
HOP-92 = tested on: HOP-92
HT-29 = tested on: HT-29
Hs-578T = tested on: Hs-578T
IGROV-1 = tested on: IGROV-1
K562 = tested on: K562
KM12 = tested on: KM12
LOX IMVI = tested on: LOX IMVI
M14 = tested on: M14
MCF7 = tested on: MCF7
MDA-MB-231 = tested on: MDA-MB-231
MDA-MB-435 = tested on: MDA-MB-435
MDA-N = tested on: MDA-N
MOLT-4 = tested on: MOLT-4
Malme-3M = tested on: Malme-3M
NCI-H23 = tested on: NCI-H23
NCI-H460 = tested on: NCI-H460
NCI-H522 = tested on: NCI-H522
NCI/ADR-RES = tested on: NCI/ADR-RES
OVCAR-3 = tested on: OVCAR-3
OVCAR-5 = tested on: OVCAR-5
OVCAR-8 = tested on: OVCAR-8
PC-3 = tested on: PC-3
RPMI-8226 = tested on: RPMI-8226
RXF 393 = tested on: RXF 393
SF-268 = tested on: SF-268
SF-295 = tested on: SF-295
SF-539 = tested on: SF-539
SK-MEL-28 = tested on: SK-MEL-28
SK-MEL-2 = tested on: SK-MEL-2
SK-MEL-5 = tested on: SK-MEL-5
SK-OV-3 = tested on: SK-OV-3
SN12C = tested on: SN12C
SNB-19 = tested on: SNB-19
SNB-75 = tested on: SNB-75
SR = tested on: SR
SW-620 = tested on: SW-620
T47D = tested on: T47D
TK-10 = tested on: TK-10
U-251 = tested on: U-251
UACC-257 = tested on: UACC-257
UACC-62 = tested on: UACC-62
UO-31 = tested on: UO-31
NCI-H226 = tested on: NCI-H226
OVCAR-4 = tested on: OVCAR-4

For `COC(=O)CSSCc1ccc([N+](=O)[O-])cc1`, which GI50 (786-0) is on record?
The GI50 was 19 µM (inactive).

What about the GI50 (A498) of the same compound?
The GI50 was 21.6 µM (inactive).

And the GI50 (A549)?
Its GI50 is 25.5 µM (inactive).

And the GI50 (ACHN)?
Its GI50 is 16.3 µM (inactive).

What about the GI50 (BT-549) of the same compound?
The GI50 was 19.1 µM (inactive).

What about the GI50 (CAKI-1) of the same compound?
Its GI50 is 2.23 µM (inactive).

What about the GI50 (CCRF-CEM) of the same compound?
The GI50 was 5.6 µM (inactive).

What about the GI50 (COLO 205) of the same compound?
Its GI50 is 18.7 µM (inactive).

And the GI50 (DU-145)?
Its GI50 is 19.5 µM (inactive).

What about the GI50 (EKVX) of the same compound?
Its GI50 is 28.2 µM (inactive).

And the GI50 (HCC 2998)?
The GI50 was 21.4 µM (inactive).

And the GI50 (HCT-116)?
Its GI50 is 12.2 µM (inactive).

And the GI50 (HCT-15)?
The GI50 was 16.7 µM.

And the GI50 (HL-60)?
The GI50 was 21.1 µM (inactive).

What about the GI50 (HOP-62) of the same compound?
The GI50 was 20.1 µM (inactive).

What about the GI50 (HOP-92) of the same compound?
The GI50 was 27.1 µM (inactive).

What about the GI50 (HT-29) of the same compound?
The GI50 was 19.5 µM (inactive).

What about the GI50 (Hs-578T) of the same compound?
Its GI50 is 21.2 µM (inactive).

And the GI50 (IGROV-1)?
Its GI50 is 3.08 µM (inactive).

And the GI50 (K562)?
The GI50 was 29.6 µM (inactive).

And the GI50 (KM12)?
Its GI50 is 15.1 µM (inactive).

What about the GI50 (LOX IMVI) of the same compound?
Its GI50 is 12.8 µM (inactive).

What about the GI50 (M14) of the same compound?
The GI50 was 19.8 µM (inactive).

And the GI50 (MCF7)?
Its GI50 is 7.33 µM (inactive).

And the GI50 (MDA-MB-231)?
The GI50 was 19.1 µM (inactive).

And the GI50 (MDA-MB-435)?
The GI50 was 13.9 µM (inactive).

And the GI50 (MDA-N)?
Its GI50 is 14.7 µM (inactive).

And the GI50 (MOLT-4)?
Its GI50 is 3.93 µM (inactive).

What about the GI50 (Malme-3M) of the same compound?
The GI50 was 29.6 µM (inactive).

And the GI50 (NCI-H23)?
The GI50 was 32 µM (inactive).

And the GI50 (NCI-H460)?
Its GI50 is 33.7 µM (inactive).

What about the GI50 (NCI-H522) of the same compound?
The GI50 was 13.4 µM (inactive).

What about the GI50 (NCI/ADR-RES) of the same compound?
Its GI50 is 20.9 µM (inactive).

And the GI50 (OVCAR-3)?
Its GI50 is 18.5 µM (inactive).

What about the GI50 (OVCAR-5) of the same compound?
The GI50 was 19.4 µM (inactive).

And the GI50 (OVCAR-8)?
The GI50 was 28.6 µM (inactive).

And the GI50 (PC-3)?
The GI50 was 28.1 µM (inactive).

And the GI50 (RPMI-8226)?
The GI50 was 18 µM (inactive).

What about the GI50 (RXF 393) of the same compound?
The GI50 was 18.4 µM (inactive).

And the GI50 (SF-268)?
The GI50 was 21.8 µM (inactive).

And the GI50 (SF-295)?
Its GI50 is 19 µM (inactive).

What about the GI50 (SF-539) of the same compound?
Its GI50 is 18.2 µM (inactive).

And the GI50 (SK-MEL-28)?
The GI50 was 18 µM (inactive).

And the GI50 (SK-MEL-2)?
Its GI50 is 18.1 µM (inactive).

And the GI50 (SK-MEL-5)?
Its GI50 is 17.7 µM (inactive).

What about the GI50 (SK-OV-3) of the same compound?
Its GI50 is 20.8 µM (inactive).

And the GI50 (SN12C)?
The GI50 was 14.8 µM (inactive).

And the GI50 (SNB-19)?
Its GI50 is 26.8 µM (inactive).

And the GI50 (SNB-75)?
The GI50 was 20 µM (inactive).

And the GI50 (SR)?
The GI50 was 12 µM (inactive).

And the GI50 (SW-620)?
The GI50 was 12.2 µM (inactive).

What about the GI50 (T47D) of the same compound?
Its GI50 is 24.1 µM (inactive).

And the GI50 (TK-10)?
Its GI50 is 16.2 µM (inactive).

What about the GI50 (U-251) of the same compound?
Its GI50 is 12.3 µM (inactive).

And the GI50 (UACC-257)?
The GI50 was 26.5 µM (inactive).

What about the GI50 (UACC-62) of the same compound?
The GI50 was 15.8 µM (inactive).

And the GI50 (UO-31)?
The GI50 was 10.6 µM (inactive).

Which GI50 (786-0) does the source give for `Cc1ccc([N+](=O)[O-])cc1S(=O)(=O)Nc1ccc(C2=NN(S(=O)(=O)c3cc([N+](=O)[O-])ccc3C)C(c3ccccc3)C2)cc1` (stereo not given) here?
Its GI50 is 39.5 µM (inactive).

And the GI50 (A498)?
Its GI50 is 16.5 µM (inactive).

And the GI50 (A549)?
The GI50 was 29.4 µM (inactive).

What about the GI50 (ACHN) of the same compound?
The GI50 was 31.8 µM (inactive).

What about the GI50 (BT-549) of the same compound?
Its GI50 is 21.8 µM (inactive).

And the GI50 (CAKI-1)?
The GI50 was 35.8 µM (inactive).

And the GI50 (CCRF-CEM)?
The GI50 was 36.1 µM (inactive).

And the GI50 (COLO 205)?
The GI50 was 27 µM (inactive).

What about the GI50 (DU-145) of the same compound?
Its GI50 is 42.3 µM (inactive).

And the GI50 (EKVX)?
Its GI50 is 28.8 µM (inactive).

What about the GI50 (HCC 2998) of the same compound?
The GI50 was 22.2 µM (inactive).

And the GI50 (HCT-116)?
The GI50 was 18.5 µM (inactive).

What about the GI50 (HCT-15) of the same compound?
Its GI50 is 30.9 µM.

What about the GI50 (HL-60) of the same compound?
The GI50 was 35.6 µM (inactive).

And the GI50 (HOP-62)?
Its GI50 is 35.1 µM (inactive).

And the GI50 (HOP-92)?
The GI50 was 35.8 µM (inactive).

And the GI50 (HT-29)?
The GI50 was 33.5 µM (inactive).

And the GI50 (Hs-578T)?
Its GI50 is < 0.01 µM (active).

And the GI50 (IGROV-1)?
The GI50 was 29.3 µM (inactive).

What about the GI50 (K562) of the same compound?
The GI50 was 30.1 µM (inactive).

And the GI50 (KM12)?
Its GI50 is 34.9 µM (inactive).

What about the GI50 (LOX IMVI) of the same compound?
The GI50 was 34.3 µM (inactive).

And the GI50 (M14)?
Its GI50 is 30.9 µM (inactive).

And the GI50 (MCF7)?
Its GI50 is 30.8 µM (inactive).

And the GI50 (MDA-MB-231)?
Its GI50 is 26.1 µM (inactive).

And the GI50 (MDA-MB-435)?
Its GI50 is 36.8 µM (inactive).

What about the GI50 (MDA-N) of the same compound?
The GI50 was 30.1 µM (inactive).

And the GI50 (MOLT-4)?
The GI50 was 30 µM (inactive).

And the GI50 (Malme-3M)?
The GI50 was 17.7 µM (inactive).

And the GI50 (NCI-H226)?
The GI50 was 54.2 µM (inactive).

And the GI50 (NCI-H23)?
Its GI50 is 24.2 µM (inactive).

What about the GI50 (NCI-H460) of the same compound?
The GI50 was 21.6 µM (inactive).

What about the GI50 (NCI-H522) of the same compound?
The GI50 was 15.7 µM (inactive).

What about the GI50 (NCI/ADR-RES) of the same compound?
Its GI50 is 25.5 µM (inactive).

And the GI50 (OVCAR-3)?
The GI50 was 26 µM (inactive).

And the GI50 (OVCAR-4)?
Its GI50 is 33.9 µM (inactive).

What about the GI50 (OVCAR-5) of the same compound?
Its GI50 is 51.2 µM (inactive).

What about the GI50 (OVCAR-8) of the same compound?
The GI50 was 42.2 µM (inactive).

What about the GI50 (PC-3) of the same compound?
The GI50 was 26.9 µM (inactive).

And the GI50 (RPMI-8226)?
The GI50 was 22.3 µM (inactive).

What about the GI50 (RXF 393) of the same compound?
Its GI50 is 36.6 µM (inactive).

And the GI50 (SF-268)?
The GI50 was 17.6 µM (inactive).

What about the GI50 (SF-295) of the same compound?
The GI50 was 21.7 µM (inactive).

And the GI50 (SK-MEL-28)?
Its GI50 is 82.8 µM (inactive).

And the GI50 (SK-MEL-2)?
The GI50 was 22.6 µM (inactive).

What about the GI50 (SK-MEL-5) of the same compound?
Its GI50 is 26.3 µM (inactive).

What about the GI50 (SK-OV-3) of the same compound?
Its GI50 is 27.4 µM (inactive).

And the GI50 (SN12C)?
The GI50 was 28.2 µM (inactive).

And the GI50 (SNB-19)?
The GI50 was 36.4 µM (inactive).

What about the GI50 (SNB-75) of the same compound?
The GI50 was 64.6 µM (inactive).

What about the GI50 (SR) of the same compound?
Its GI50 is 32 µM (inactive).

And the GI50 (SW-620)?
The GI50 was 50.5 µM (inactive).

And the GI50 (T47D)?
The GI50 was 41.4 µM (inactive).

And the GI50 (TK-10)?
The GI50 was 30.9 µM (inactive).

What about the GI50 (U-251) of the same compound?
Its GI50 is 29.8 µM (inactive).

What about the GI50 (UACC-257) of the same compound?
The GI50 was 24.8 µM (inactive).

What about the GI50 (UACC-62) of the same compound?
Its GI50 is 16 µM (inactive).

And the GI50 (UO-31)?
The GI50 was 28.6 µM (inactive).
